Source: ChEMBL document CHEMBL1149980, “Synthesis of rutaecarpine and cytotoxic analogues” (1995)

What was measured:
Type in all cases: functional
Conditions in all cases: Homo sapiens
A549 = experiment: Tested for in vitro cytotoxicity against non-small cell lung cancer cell line A549/ATCC
CCRF-CEM = experiment: Tested for in vitro cytotoxicity against leukemia cell line CCRF-CEM
Hs-578T = experiment: Tested for in vitro cytotoxicity against breast cancer cell line Hs 578.T
NCI-H460 = experiment: Tested for in vitro cytotoxicity against non-small cell lung cancer cell line NCI-H460
OVCAR-4 = experiment: Tested for in vitro cytotoxicity against ovarian cancer cell line OVCAR-4
786-0 = experiment: Tested for in vitro cytotoxicity against renal cancer cell line 786-0

| SMILES | GI50 (A549) [µM] | GI50 (CCRF-CEM) [µM] | GI50 (Hs-578T) [µM] | GI50 (NCI-H460) [µM] | GI50 (OVCAR-4) [µM] | GI50 (786-0) [µM] |
| --- | --- | --- | --- | --- | --- | --- |
| COc1ccc2c3c([nH]c2c1)-c1nc2ccccc2c(=O)n1CC3 | 0.75 | > 25 | 1.59 | 1.38 | > 25 | 0.31 |
| O=c1c2ccccc2nc2n1CCc1c-2[nH]c2cc3c(cc12)OCO3 | > 25 | > 25 | 5.05 | 1.55 | 1.5 | 1.08 |
| COc1ccc2[nH]c3c(c2c1)CCn1c-3nc2ccccc2c1=O | > 25 | > 25 | > 25 | > 25 | > 25 | > 25 |
| O=c1c2ccccc2nc2n1CCc1c-2[nH]c2ccccc12 [RUTAECARPINE] | 14.5 | 18.9 | 22.6 | – | 18.9 | – |
